Laboratory results as given in ChEMBL document CHEMBL1133308, “A novel inhibitor of human telomerase derived from 10H-indolo[3,2-b]quinoline” (Bioorg Med Chem Lett, 2000).

Experiments:
[1] = Compound was evaluated for cytotoxicity against human ovarian cancer cell A2780; assay type: functional, cell-based; conditions: Cancer cell lines
[2] = Compound was evaluated for cytotoxicity against human ovarian cancer cell SKOV-3; assay type: functional, cell-based; conditions: Cancer cell lines
[3] = Compound was evaluated for cytotoxicity against human ovarian cancer cell CHI; assay type: functional, cell-based; conditions: Cancer cell lines
[4] = Compound was evaluated for cytotoxicity against human ovarian cancer cell CHI R; assay type: functional, cell-based; conditions: Cancer cell lines
[5] = biological target: Telomerase reverse transcriptase (Homo sapiens, UniProt O14746); assay: Inhibitory activity against human ovarian cancer cell (A2780 cells) Telomerase; assay type: cell-based
Sequence of Telomerase reverse transcriptase (O14746 whole entry): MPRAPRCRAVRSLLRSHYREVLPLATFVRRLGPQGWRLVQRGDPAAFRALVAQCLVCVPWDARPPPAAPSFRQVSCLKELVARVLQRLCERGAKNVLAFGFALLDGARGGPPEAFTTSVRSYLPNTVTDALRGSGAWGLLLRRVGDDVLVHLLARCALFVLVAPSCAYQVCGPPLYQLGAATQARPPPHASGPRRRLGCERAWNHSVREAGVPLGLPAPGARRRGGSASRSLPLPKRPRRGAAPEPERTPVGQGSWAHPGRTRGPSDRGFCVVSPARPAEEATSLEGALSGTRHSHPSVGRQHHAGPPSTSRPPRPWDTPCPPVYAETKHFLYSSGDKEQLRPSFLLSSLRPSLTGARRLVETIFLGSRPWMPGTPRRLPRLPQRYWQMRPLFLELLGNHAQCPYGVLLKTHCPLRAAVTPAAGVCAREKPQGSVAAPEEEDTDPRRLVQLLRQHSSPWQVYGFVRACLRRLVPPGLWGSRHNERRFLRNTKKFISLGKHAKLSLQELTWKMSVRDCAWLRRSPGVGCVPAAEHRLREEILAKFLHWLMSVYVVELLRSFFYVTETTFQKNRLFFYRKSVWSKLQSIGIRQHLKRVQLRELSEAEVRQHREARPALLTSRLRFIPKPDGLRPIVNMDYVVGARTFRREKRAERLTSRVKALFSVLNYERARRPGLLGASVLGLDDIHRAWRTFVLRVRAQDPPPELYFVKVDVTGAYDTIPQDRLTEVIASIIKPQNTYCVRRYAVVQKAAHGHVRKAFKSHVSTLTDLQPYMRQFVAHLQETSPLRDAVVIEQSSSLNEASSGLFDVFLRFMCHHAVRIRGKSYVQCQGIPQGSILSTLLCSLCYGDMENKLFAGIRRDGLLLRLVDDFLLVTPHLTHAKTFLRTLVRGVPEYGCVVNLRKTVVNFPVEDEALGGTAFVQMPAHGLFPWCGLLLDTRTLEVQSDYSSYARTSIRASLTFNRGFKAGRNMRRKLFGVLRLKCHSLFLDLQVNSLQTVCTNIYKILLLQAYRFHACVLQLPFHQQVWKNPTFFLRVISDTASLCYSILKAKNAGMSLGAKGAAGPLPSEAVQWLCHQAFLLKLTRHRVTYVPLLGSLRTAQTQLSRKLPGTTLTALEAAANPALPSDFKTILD

[6] = Compound was evaluated for cytotoxicity against human ovarian cancer cell A2780R.; assay type: functional, cell-based; conditions: Cancer cell lines

SMILES | IC50 [1] [µM] | IC50 [2] [µM] | IC50 [3] [µM] | IC50 [4] [µM] | IC50 [5] [µM] | IC50 [6] [µM]
CN(C)CCc1ccc2nc3c4ccccc4n(CCN(C)C)c3cc2c1 | 12.5 | 6.3 | 8.4 | 12.5 | 16 | 10.5
CCN(CC)CCOc1ccc2c(c1)OC1C(=O)c3ccccc3C(=O)C21 (stereo not given) | 0.15 | 3.6 | 0.18 | – | 7 | –
c1ccc2nc3c(cc2c1)[nH]c1ccccc13 [QUINDOLINE] | 21.5 | 66 | 15.5 | 30 | – | 24.5
